Molecular target: T1, KDM3A (Homo sapiens, UniProt Q9Y4C1)
T1 construct: host or cells: Sf9 cells
T1 sequence (Q9Y4C1 1-1321): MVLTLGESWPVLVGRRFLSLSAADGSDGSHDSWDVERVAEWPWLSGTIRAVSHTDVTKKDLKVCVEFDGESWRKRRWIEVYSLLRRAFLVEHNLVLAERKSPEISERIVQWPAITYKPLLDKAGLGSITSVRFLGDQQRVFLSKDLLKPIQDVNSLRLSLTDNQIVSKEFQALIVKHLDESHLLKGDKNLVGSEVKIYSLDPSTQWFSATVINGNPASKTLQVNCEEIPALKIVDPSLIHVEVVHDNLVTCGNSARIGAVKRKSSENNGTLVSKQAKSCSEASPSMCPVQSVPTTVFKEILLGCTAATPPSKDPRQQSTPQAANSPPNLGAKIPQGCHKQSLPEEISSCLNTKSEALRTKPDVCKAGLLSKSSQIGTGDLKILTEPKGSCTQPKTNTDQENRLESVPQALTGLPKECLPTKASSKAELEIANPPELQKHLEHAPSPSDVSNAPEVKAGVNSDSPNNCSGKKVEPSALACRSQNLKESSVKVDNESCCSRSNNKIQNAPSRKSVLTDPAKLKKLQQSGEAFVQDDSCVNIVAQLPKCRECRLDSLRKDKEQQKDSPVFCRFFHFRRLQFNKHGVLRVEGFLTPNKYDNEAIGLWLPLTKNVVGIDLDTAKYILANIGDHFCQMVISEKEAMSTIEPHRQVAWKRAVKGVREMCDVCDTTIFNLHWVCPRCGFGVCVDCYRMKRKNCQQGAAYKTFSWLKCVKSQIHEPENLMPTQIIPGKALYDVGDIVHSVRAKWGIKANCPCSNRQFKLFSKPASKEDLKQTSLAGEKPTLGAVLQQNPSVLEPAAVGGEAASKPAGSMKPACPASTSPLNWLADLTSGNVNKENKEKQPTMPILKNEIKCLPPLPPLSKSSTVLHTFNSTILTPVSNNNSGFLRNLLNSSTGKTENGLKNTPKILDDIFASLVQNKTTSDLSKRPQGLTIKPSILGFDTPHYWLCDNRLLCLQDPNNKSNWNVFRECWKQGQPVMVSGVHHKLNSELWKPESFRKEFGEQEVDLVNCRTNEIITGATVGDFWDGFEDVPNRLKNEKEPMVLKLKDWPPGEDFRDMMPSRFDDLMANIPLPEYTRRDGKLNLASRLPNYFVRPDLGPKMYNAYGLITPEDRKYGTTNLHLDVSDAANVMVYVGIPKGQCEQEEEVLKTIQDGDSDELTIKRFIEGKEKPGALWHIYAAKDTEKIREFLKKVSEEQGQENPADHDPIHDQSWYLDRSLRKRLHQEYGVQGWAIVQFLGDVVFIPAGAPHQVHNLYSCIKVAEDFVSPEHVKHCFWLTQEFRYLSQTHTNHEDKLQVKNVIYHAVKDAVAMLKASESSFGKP
Assay: Biochemical KDM inhibition assay (LANCE), KDM3A
Conditions: read-out: Biochemical IC50 KDM 3A

SMILES | IC50 [µM]
CCN(CC)CCCCNCc1cc(C(=O)O)ccn1 [Example 18] | 5.4
Cc1cc(Cl)ccc1COc1ccnn1-c1cc(C(=O)O)ccn1 [Example 11] | 7.5
Nc1c(C(=O)O)ccnc1C(=O)O [Example 7, reference compound] | 1.2
N#CNC(=O)c1ccncc1Nc1nn(CCN2CCC(F)(F)CC2)c2ccc(F)cc12 [Example 14] | 3.9
CCN(CCN(C)C)C(=O)CNCc1cc(C(=O)O)ccn1 [Example 9] | 1.1
